Entries after “also recorded” stand apart in the source; their conditions may differ.
What was measured:
AR [1] = target: T1, AR (Homo sapiens, UniProt P10275); assay: probasin (PB)-luciferase reporter assay of AR transcriptional activity; format: cell-based
T1 sequence (P10275 1-920 T878A): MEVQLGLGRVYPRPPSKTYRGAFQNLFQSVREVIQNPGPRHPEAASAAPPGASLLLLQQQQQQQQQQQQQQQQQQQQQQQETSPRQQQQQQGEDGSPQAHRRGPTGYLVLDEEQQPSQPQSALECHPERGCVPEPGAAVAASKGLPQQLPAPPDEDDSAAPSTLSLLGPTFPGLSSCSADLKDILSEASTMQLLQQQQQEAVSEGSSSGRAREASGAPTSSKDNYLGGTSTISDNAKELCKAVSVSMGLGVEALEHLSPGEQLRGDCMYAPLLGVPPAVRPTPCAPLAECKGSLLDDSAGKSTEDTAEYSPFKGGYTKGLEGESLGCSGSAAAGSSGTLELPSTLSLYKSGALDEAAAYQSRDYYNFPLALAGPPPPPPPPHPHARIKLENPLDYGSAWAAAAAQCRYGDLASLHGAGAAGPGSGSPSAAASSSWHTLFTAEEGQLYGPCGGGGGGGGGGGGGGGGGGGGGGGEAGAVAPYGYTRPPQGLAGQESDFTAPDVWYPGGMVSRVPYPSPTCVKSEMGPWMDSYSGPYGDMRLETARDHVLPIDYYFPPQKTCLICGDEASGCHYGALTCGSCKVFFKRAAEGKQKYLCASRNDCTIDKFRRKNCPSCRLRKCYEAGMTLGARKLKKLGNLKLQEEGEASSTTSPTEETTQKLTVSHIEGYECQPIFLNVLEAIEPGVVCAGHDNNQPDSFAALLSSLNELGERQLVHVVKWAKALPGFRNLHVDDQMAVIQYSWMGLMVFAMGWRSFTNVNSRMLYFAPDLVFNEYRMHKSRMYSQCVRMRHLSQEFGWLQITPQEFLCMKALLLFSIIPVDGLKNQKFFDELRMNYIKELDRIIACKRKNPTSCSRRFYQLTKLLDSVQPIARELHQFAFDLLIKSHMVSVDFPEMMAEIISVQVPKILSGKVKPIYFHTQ

AR [2] = target: T1, AR; assay: ARR3-luciferase reporter assay of AR transcriptional activity; format: cell-based
AR [3] = target: T1, AR; assay: PSA-luciferase reporter assay of AR transcriptional activity; format: cell-based; conditions: for PSA-Luc activity (%) mean ± SD: PSA-luciferase reporter
LNCaP CRPC xenograft = LNCaP CRPC xenograft model, antitumor activity; format: in vivo, mice; conditions: for CRPC tumor growth / antitumor activity (in words): compared to DMSO control or to other comparative compounds, FIGS. 6, 7
[4] = Body weight of animals in LNCaP CRPC xenograft model; format: in vivo, mice; conditions: treated animals; FIG. 9
LNCaP cells = assay: Inhibition of androgen-dependent proliferation, AlamarBlue Proliferation Assay; format: cell-based, human; conditions: 0.1 nM R1881, 3 days; compared to comparative compound (Ac); FIGS. 1A and 1B
Description: LNCaP human prostate cancer cells were maintained in phenol red-free RPMI 1640 medium with 0.5% (v/v) fetal bovine serum, while PC3 human prostate cancer cells were cultured in phenol red DMEM medium with 0.5% (v/v) fetal bovine serum at 37° C. […] LNCaP cells were incubated for 72 hours with R1881, while the duration of the experiment was 48 hours for PC3 cells. AlamarBlue reagent was added to the cells prior to incubation and measuring fluorescence at 570 nm.

[5] = target: T2, androgen receptor N-terminal domain (Homo sapiens, UniProt P10275); assay: Inhibition of androgen receptor N-terminal domain transactivation (AR (1-558)-Gal4 DBD, luciferase); format: cell-based; conditions: LNCaP cells, compound 1 20 μm vs (Ac) 25 μm, 50 ng/ml IL-6; FIG. 2
T2 construct: AR (1-558)-Gal4 DBD; expressed in transfected cells; host or cells: LNCaP
T2 sequence (P10275 1-558): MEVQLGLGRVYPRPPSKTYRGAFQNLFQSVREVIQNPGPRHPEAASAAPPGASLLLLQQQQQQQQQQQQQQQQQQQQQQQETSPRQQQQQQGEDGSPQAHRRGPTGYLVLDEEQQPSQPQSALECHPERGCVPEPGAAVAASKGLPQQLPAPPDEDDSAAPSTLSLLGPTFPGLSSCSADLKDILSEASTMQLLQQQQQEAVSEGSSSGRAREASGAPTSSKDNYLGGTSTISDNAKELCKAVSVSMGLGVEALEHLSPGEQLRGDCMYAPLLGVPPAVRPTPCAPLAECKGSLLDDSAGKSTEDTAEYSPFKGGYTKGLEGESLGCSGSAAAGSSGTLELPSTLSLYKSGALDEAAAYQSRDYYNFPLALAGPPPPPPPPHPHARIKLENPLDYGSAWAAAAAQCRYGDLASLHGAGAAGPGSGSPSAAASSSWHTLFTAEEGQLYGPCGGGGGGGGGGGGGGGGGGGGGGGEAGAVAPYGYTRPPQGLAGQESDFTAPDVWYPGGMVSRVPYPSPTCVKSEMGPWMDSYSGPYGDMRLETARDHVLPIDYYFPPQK
Description: Inhibition of androgen receptor N-terminal domain transactivation was determined as follows.

VCaP xenografts = assay: Growth inhibition of VCaP xenografts in castrated mice; format: in vivo; conditions: castrated NOD-SCID mice, 50 mg/kg i.v. every other day, seven doses; compared to (Ac); FIGS. 3, 4
Description: Growth inhibition of VCaP xenografts in castrated mice was determined as follow. Male NOD-SCID mice bearing subcutaneous VCaP tumors were castrated when tumor volume was ˜100 mm^3. […] The experiment ended two days after the last dose. Change in tumor volume was determined as the change at day 14 compared to the day of 1st injection. DMSO was used as the vehicle control.

| Compound | PB-Luc activity (%) mean ± SD (AR [1]) [%] | ARR3-Luc activity (%) mean ± SD (AR [2]) [%] | PSA-Luc activity (%) mean ± SD (AR [3]) [%] | change in tumor volume at day 14 (in words) (VCaP xenografts) | other results |
| --- | --- | --- | --- | --- | --- |
| CC(C)(c1ccc(OCC(O)CO)cc1)c1ccc(OCC(O)CCl)cc1 (stereo not shown) [(A)] | 63.96 ± 13.70 | 63.96 ± 14.57 | 36.91 ± 16.46 |  |  |
| CC(C)(c1ccc(OCC(O)CF)cc1)c1ccc(OCC(O)CCl)cc1 (stereo not shown) [Compound 1, 1-chloro-3-(4-(2-(4-(3-fluoro-2-hydroxypropoxy)phenyl)propan-2-yl)phenoxy)propan-2-ol] |  |  |  | increased loss in tumor volume | inhibition of androgen-dependent proliferation of LNCaP cells (in words) (LNCaP cells): inhibits androgen-dependent proliferation of LNCaP cells at lower concentrations; inhibition of androgen receptor N-terminal domain transactivation (in words) [5]: more potent inhibition activity |
| CC(C)(c1ccc(OC[C@H](O)CF)cc1)c1ccc(OC[C@H](O)CCl)cc1 [Compound 1c, (S)-1-chloro-3-(4-(2-(4-((S)-3-fluoro-2-hydroxypropoxy)phenyl)propan-2-yl)phenoxy)propan-2-ol] |  |  |  | increased loss in tumor volume |  |
| CC(C)(c1ccc(OC[C@@H](O)CF)cc1)c1ccc(OC[C@@H](O)CCl)cc1 [Compound 1d, (R)-1-chloro-3-(4-(2-(4-((R)-3-fluoro-2-hydroxypropoxy)phenyl)propan-2-yl)phenoxy)propan-2-ol] |  |  |  | increased loss in tumor volume |  |

Continued, in another order:

| PB-Luc activity (%) mean ± SD (AR [1]) [%] | ARR3-Luc activity (%) mean ± SD (AR [2]) [%] | PSA-Luc activity (%) mean ± SD (AR [3]) [%] | Compound | change in tumor volume at day 14 (in words) (VCaP xenografts) | other results |
| --- | --- | --- | --- | --- | --- |
| 66.44 ± 12.47 | 66.44 ± 31.59 | 45.16 ± 29.13 | CC(C)(c1ccc(OC[C@H](O)CO)cc1)c1ccc(OC[C@@H](O)CCl)cc1 [(Aa)] |  |  |
| 43.70 ± 9.98 | 43.68 ± 15.16 | 24.49 ± 13.20 | CC(C)(c1ccc(OC[C@H](O)CCl)cc1)c1ccc(OC[C@@H](O)CO)cc1 [(Ab)] |  | animals in which tumor regression was attained (LNCaP CRPC xenograft; FIG. 8): 60%; CRPC tumor growth / antitumor activity (in words) (LNCaP CRPC xenograft): better antitumor activity; loss of body weight (in words) [4]: some losses |
| 41.58 ± 6.63 | 41.58 ± 14.82 | 24.33 ± 13.63 | CC(C)(c1ccc(OC[C@H](O)CO)cc1)c1ccc(OC[C@H](O)CCl)cc1 [(Ac)] |  | inhibition of transcriptional activity of AR (in words) (AR [3]; PSA-, probasin (PB)- and ARR3-luciferase reporters, Table 3): best activity of all the comparative compounds; extent of tumor regression (in words) (LNCaP CRPC xenograft; (Ac) versus (Ab), FIG. 8): greater regression; animals in which tumor regression was attained (LNCaP CRPC xenograft; FIG. 8): 60%; CRPC tumor growth / antitumor activity (in words) (LNCaP CRPC xenograft): better antitumor activity; also recorded: most potent and least toxic of the comparative compounds; loss of body weight (in words) [4]: No loss of body weight |
| 54.72 ± 7.83 | 54.73 ± 12.99 | 33.55 ± 11.31 | CC(C)(c1ccc(OC[C@@H](O)CO)cc1)c1ccc(OC[C@@H](O)CCl)cc1 [(Ad)] |  |  |

— US20130045204A1, “FLUORINATED BISPHENOL ETHER COMPOUNDS AND METHODS FOR THEIR USE” (The University of British Columbia, priority 2011, published 2013)
